Drawing on PubChem BioAssay AID1918943 (Molecular Pharmacology Branch, DTP, NCI, 2023), this text covers IC50 and viability, T/C for seven compounds.

This experiment has as its system 855422-203-R-J1-PDC complex spheroid viability. The experiment can be described thus: Anticancer human tumor 855422-203-R-J1-PDC patient-derived bladder carcinoma cell line growth inhibition. The settings on record: for viability, T/C: stronger effect = lower value. An outline of the steps:
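Complex spheroids of tumor cells with HUVEC and human MSCs, exposed to iadademstat combined with other agents. Each agent tested in half-log steps from near clinical Cmax (else 10 microM top), DMSO ≤0.25%.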

[1] abbreviates: curve of first compound, second compound 0.1 µM.
The mark [2] stands for this setting: curve of first compound, second compound 0.316 µM.
[3] abbreviates: curve of first compound, second compound 1 µM.
[4] abbreviates: curve of first compound, second compound 3.16 µM.
Setting [5] is: curve of first compound, second compound 10 µM.
[6] abbreviates: second compound 0.1 µM, first compound 0.0316 µM.
The mark [7] stands for this setting: second compound 0.1 µM, first compound 0.1 µM.
[8] abbreviates: second compound 0.1 µM, first compound 0.316 µM.
Setting [9] is: second compound 0.1 µM, first compound 1 µM.
Where [10] appears, read: second compound 0.316 µM, first compound 0.0316 µM.
Where [11] appears, read: second compound 0.316 µM, first compound 0.1 µM.
Where [12] appears, read: second compound 0.316 µM, first compound 0.316 µM.
Where [13] appears, read: second compound 0.316 µM, first compound 1 µM.
The mark [14] stands for this setting: second compound 1 µM, first compound 0.0316 µM.
Where [15] appears, read: second compound 1 µM, first compound 0.1 µM.
Where [16] appears, read: second compound 1 µM, first compound 0.316 µM.
Where [17] appears, read: second compound 1 µM, first compound 1 µM.
Setting [18] is: second compound 3.16 µM, first compound 0.0316 µM.
Setting [19] is: second compound 3.16 µM, first compound 0.1 µM.
The mark [20] stands for this setting: second compound 3.16 µM, first compound 0.316 µM.
Setting [21] is: second compound 3.16 µM, first compound 1 µM.
Setting [22] is: second compound 10 µM, first compound 0.0316 µM.
Where [23] appears, read: second compound 10 µM, first compound 0.1 µM.
Setting [24] is: second compound 10 µM, first compound 0.316 µM.
The mark [25] stands for this setting: second compound 10 µM, first compound 1 µM.

The structures appear in SMILES notation. “And” between values parts separate entries of the source, which are not always exact repeats. Equal entries are not always repeated. Some results are limits rather than exact numbers.
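Further: drug exposure lasted 7 days starting on day 3 after seeding.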
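Wherever viability, T/C is given: luminescence viability as percent of DMSO vehicle wells = 100%.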

For orientation: IC50 means the point on the concentration scale where inhibition reaches its midpoint. By viability, T/C is commonly meant the result in the treated group divided by that in the control group, in per cent. As to `COc1cc(Nc2ncc3c(n2)-c2ccc(Cl)cc2C(c2c(F)cccc2OC)=NC3)ccc1C(=O)O` + NC1CCC(NC2CC2c2ccccc2)CC1, the IC50 was over 1000 nM under setting [1]; over 1000 nM under setting [2]; over 1000 nM under setting [3]; 892 nM under setting [4]; over 1000 nM under setting [5]. The viability, T/C by setting is: (second compound 0.1 µM, first compound 0.00316 µM) 81%; (second compound 0.1 µM, first compound 0.01 µM) 91.2%; under setting [6], 78.8%; under setting [7], 70.8%; under setting [8], 64.5%; under setting [9], 50.3%. For the same compound, the viability, T/C is, setting by setting: (second compound 0.316 µM, first compound 0.00316 µM) 88.1%; (second compound 0.316 µM, first compound 0.01 µM) 81.2%; under setting [10], 66.4%; under setting [11], 70.7%; under setting [12], 64.2%; under setting [13], 56.5%. The viability, T/C (second compound 1 µM, first compound 0.00316 µM) is 95.7%; the viability, T/C (second compound 1 µM, first compound 0.01 µM) is 94.6%; the viability, T/C under setting [14] is 67.8%; the viability, T/C under setting [15] is 71.2%; the viability, T/C under setting [16] is 61.5%; the viability, T/C under setting [17] is 57%. The viability, T/C was 76.3% (second compound 3.16 µM, first compound 0.00316 µM); 81.3% (second compound 3.16 µM, first compound 0.01 µM); 70.8% under setting [18]; 66.1% under setting [19]; 59.4% under setting [20]; 48.8% under setting [21]. In addition, the viability, T/C reads like this: (second compound 10 µM, first compound 0.00316 µM) 83.2%; (second compound 10 µM, first compound 0.01 µM) 85.5%; under setting [22], 64.8%; under setting [23], 63%; under setting [24], 57.7%; under setting [25], 52.6%.

With `COc1ccc([C@@H](O)c2cc(-c3ncnc4cc(N5CCOCC5)ccc34)c(F)cc2Cl)nn1`, the viability, T/C was 95% and 94.1% (compound 0.0316 µM); 94.7% and 94.4% (compound 0.1 µM); 79.5% and 92.2% (compound 0.316 µM); 74.3% and 85.5% (compound 1 µM); 53.7% and 69.3% (compound 3.16 µM); 38.6% and 39.6% (compound 10 µM). The IC50 (curve of compound) is 4480 nM and 6680 nM.

Consider `NS(=O)(=O)OCC1CC(n2ccc3c(NC4CCc5ccccc54)ncnc32)CC1O` (stereo not drawn) + NC1CCC(NC2CC2c2ccccc2)CC1, for which the IC50 is, setting by setting: under setting [1], 708 nM; under setting [2], 765 nM; under setting [3], 747 nM; under setting [4], 593 nM; under setting [5], 469 nM. For the same compound, the viability, T/C is 102% (second compound 0.1 µM, first compound 0.00949 µM); 102% (second compound 0.1 µM, first compound 0.03 µM); 102% (second compound 0.1 µM, first compound 0.0949 µM); 88.6% (second compound 0.1 µM, first compound 0.3 µM); 36.9% (second compound 0.1 µM, first compound 0.949 µM); 14.8% (second compound 0.1 µM, first compound 3 µM). Besides, the viability, T/C is, setting by setting: (second compound 0.316 µM, first compound 0.00949 µM) 100%; (second compound 0.316 µM, first compound 0.03 µM) 98.6%; (second compound 0.316 µM, first compound 0.0949 µM) 76.6%; (second compound 0.316 µM, first compound 0.3 µM) 87.4%; (second compound 0.316 µM, first compound 0.949 µM) 41.5%; (second compound 0.316 µM, first compound 3 µM) 13.9%. In addition, the viability, T/C was 105% (second compound 1 µM, first compound 0.00949 µM); 108% (second compound 1 µM, first compound 0.03 µM); 79.9% (second compound 1 µM, first compound 0.0949 µM); 83% (second compound 1 µM, first compound 0.3 µM); 38.9% (second compound 1 µM, first compound 0.949 µM); 17.4% (second compound 1 µM, first compound 3 µM). Also, the viability, T/C reads like this: (second compound 3.16 µM, first compound 0.00949 µM) 95.3%; (second compound 3.16 µM, first compound 0.03 µM) 90%; (second compound 3.16 µM, first compound 0.0949 µM) 80%; (second compound 3.16 µM, first compound 0.3 µM) 74.5%; (second compound 3.16 µM, first compound 0.949 µM) 34.1%; (second compound 3.16 µM, first compound 3 µM) 9.44%. In addition, the viability, T/C reads like this: (second compound 10 µM, first compound 0.00949 µM) 86.9%; (second compound 10 µM, first compound 0.03 µM) 95.7%; (second compound 10 µM, first compound 0.0949 µM) 70.9%; (second compound 10 µM, first compound 0.3 µM) 69.9%; (second compound 10 µM, first compound 0.949 µM) 23.8%; (second compound 10 µM, first compound 3 µM) 10.1%.

Consider `Nc1ncn(C2CC(O)C(CO)S2)c(=O)n1` (stereo not drawn), for which the viability, T/C by setting is: (compound 0.000949 µM) 106% and 93.8%; (compound 0.003 µM) 91.9% and 98.4%; (compound 0.00949 µM) 88.5% and 95.2%; (compound 0.03 µM) 84.7% and 98%; (compound 0.0949 µM) 82.8% and 102%; (compound 0.3 µM) 79.9% and 83.6%. For the same compound, the IC50 (curve of compound) was over 300 nM.

Consider `Nc1ccccc1NC(=O)c1ccc(CNC(=O)OCc2cccnc2)cc1`, for which the viability, T/C is 92.6% and 94.4% (compound 0.00949 µM); 100% and 97% (compound 0.03 µM); 106% and 105% (compound 0.0949 µM); 90.8% and 101% (compound 0.3 µM); 75.4% and 64% (compound 0.949 µM); 13.4% and 13.2% (compound 3 µM). The IC50 (curve of compound) is 1510 nM and 1300 nM.

Turning to `Nc1ccn(C2OC(CO)C(O)C2(F)F)c(=O)n1` (stereo not drawn), the viability, T/C was 90.2% and 96.5% (compound 0.000949 µM); 59.8% and 55% (compound 0.003 µM); 37.2% and 35.9% (compound 0.00949 µM); 36.1% and 29.9% (compound 0.03 µM); 29.3% and 22% (compound 0.0949 µM); 19.9% and 16.3% (compound 0.3 µM). Moreover, the IC50 (curve of compound) is 5.5 nM and 4.42 nM.

Turning to `CC1(C)CCC(CN2CCN(c3ccc(C(=O)NS(=O)(=O)c4ccc(NCC5CCOCC5)c([N+](=O)[O-])c4)c(Oc4cnc5[nH]ccc5c4)c3)CC2)=C(c2ccc(Cl)cc2)C1` + NC1CCC(NC2CC2c2ccccc2)CC1, the IC50 under setting [1] is 6210 nM; the IC50 under setting [2] worked out at 6160 nM; the IC50 under setting [3] turned out to be 6040 nM; the IC50 under setting [4] amounted to 5850 nM; the IC50 under setting [5] was determined as 5530 nM. Further, the viability, T/C is 103% under setting [6]; 94.7% under setting [7]; 95.6% under setting [8]; 101% under setting [9]; 93.4% (second compound 0.1 µM, first compound 3.16 µM); 19.2% (second compound 0.1 µM, first compound 10 µM). The viability, T/C is, setting by setting: under setting [10], 96.7%; under setting [11], 95.1%; under setting [12], 88.5%; under setting [13], 100%; (second compound 0.316 µM, first compound 3.16 µM) 93.9%; (second compound 0.316 µM, first compound 10 µM) 18%. Besides, the viability, T/C is 94.4% under setting [14]; 99.1% under setting [15]; 78.7% under setting [16]; 93.3% under setting [17]; 102% (second compound 1 µM, first compound 3.16 µM); 16.2% (second compound 1 µM, first compound 10 µM). Besides, the viability, T/C reads like this: under setting [18], 85.4%; under setting [19], 84.3%; under setting [20], 109%; under setting [21], 101%; (second compound 3.16 µM, first compound 3.16 µM) 86.2%; (second compound 3.16 µM, first compound 10 µM) 18.3%. The viability, T/C reads like this: under setting [22], 82.3%; under setting [23], 78.4%; under setting [24], 92.4%; under setting [25], 72.2%; (second compound 10 µM, first compound 3.16 µM) 83.8%; (second compound 10 µM, first compound 10 µM) 16.2%.
